Reference: PMC11272598, “RG7774 (Vicasinabin), an orally bioavailable cannabinoid receptor 2 (CB2R) agonist, decreases retinal vascular permeability, leukocyte adhesion, and ocular inflammation in animal models” (Frontiers in Pharmacology, 2024)
Like-named read-outs stand apart in the source and are kept apart here.

Assays:
CYP2D6 = target: T1, CYP2D6 (Homo sapiens, UniProt P10635); experiment: CYP inhibition assay; format: in vitro ADME; settings: 2D6, human liver microsomes
T1 construct: pooled human liver microsomes, CYP probe substrate around the reported Km; from tissue; host or cells: pooled human liver microsomes
Protocol: (§1) CYP assays were conducted as previously described to determine the risk of drug-drug interactions between test compounds and drugs known to be metabolized via different CYPs. […] Conditions were optimized to achieve the linear metabolic rate for the probe substrate reactions. Samples were analyzed by LC-MS/MS. Assays generate two endpoints: IC50 (μM) and percent inhibition at the highest acceptable test concentration (typically 50 μM; lower if highest concentration data are rejected due to insolubility).

CYP2C8 = target: T2, CYP2C8 (Homo sapiens, UniProt P10632); experiment: CYP inhibition assay; format: in vitro ADME; settings: 2C8, human liver microsomes
T2 construct: pooled human liver microsomes, CYP probe substrate around the reported Km; from tissue; host or cells: pooled human liver microsomes
Protocol: as §1

CYP2C19 = target: T3, CYP2C19 (Homo sapiens, UniProt P33261); experiment: CYP inhibition assay; format: in vitro ADME; settings: 2C19, human liver microsomes
T3 construct: pooled human liver microsomes, CYP probe substrate around the reported Km; from tissue; host or cells: pooled human liver microsomes
Protocol: as §1

CYP3A4 = target: T4, CYP3A4 (Homo sapiens, UniProt P08684); experiment: CYP inhibition assay; format: in vitro ADME; settings: 3A4, human liver microsomes
T4 construct: pooled human liver microsomes, CYP probe substrate around the reported Km; from tissue; host or cells: pooled human liver microsomes
Protocol: as §1

CYP1A2 = target: T5, CYP1A2 (Homo sapiens, UniProt P05177); experiment: CYP inhibition assay; format: in vitro ADME; settings: 1A2, human liver microsomes
T5 construct: pooled human liver microsomes, CYP probe substrate around the reported Km; from tissue; host or cells: pooled human liver microsomes
Protocol: as §1

CYP2C9 = target: T6, CYP2C9 (Homo sapiens, UniProt P11712); experiment: CYP inhibition assay; format: in vitro ADME; settings: 2C9, human liver microsomes
T6 construct: pooled human liver microsomes, CYP probe substrate around the reported Km; from tissue; host or cells: pooled human liver microsomes
Protocol: as §1

Mouse CB1R = Mouse CB1R (Mus musculus, UniProt P47746); experiment: Competitive binding assay in mouse brain membranes, [^3H]-CP55940; design: mouse brain membranes expressing endogenous CB1R; from tissue; host or cells: mouse brain membranes; settings: RG7774 10 µM; read-out: Mean ± SEM % inhibition of control, Mouse CB1R (competitive binding assay)
Protocol: Mouse brain was resuspended in 2 mM Tris–EDTA, 320 mM sucrose, 5 mM MgCl2 (pH 7.4), homogenized using a glass potter, and centrifuged 3 times, each at 1000 g for 10 min.

Mouse MAGL = target: T7, Mouse MAGL (Mus musculus, UniProt O35678); experiment: Mouse MAGL assay (brain); format: biochemical; settings: RG7774 10 µM; read-out: Mean ± SEM % inhibition of control, Mouse MAGL
T7 construct: Mouse brain or human U937 cell extracts (ATCC, Manassas, VI, USA); from tissue; host or cells: mouse brain, 100,000 g supernatant
Protocol: The final supernatant was incubated with [^3H]-2-OG (10 µM) (ARC, MO, USA) at 37°C for 30 min as previously described, and reactions were stopped with a 2:1 (v/v) mixture of chloroform/methanol. [^3H]-glycerol release in the aqueous phase was measured by scintillation counting. […] Human supernatant (100 µg) was preincubated for 15 min at RT with 8 different concentrations of RG7774 (0.1-500 µM) in the incubation medium.

[1] = Cerebrospinal fluid versus plasma concentration (data on file); format: in vivo; settings: cynomolgus monkeys
Hepatocyte clearance = format: in vitro ADME; settings: read-out: Hepatocyte CL
Protocol: For animals, hepatocyte suspension cultures were either freshly prepared by liver perfusion or from cryopreserved hepatocyte batches (BioIVT, NY, USA). For humans, commercially-available, pooled (5–20 donors), cryopreserved human hepatocytes from nontransplantable liver tissues were used (BioIVT). Suspension cultures were incubated in Nunc U96 PP-0.5 mL plates (Nunc Natural, 267245) in a Thermo Forma incubator (Fischer Scientific, Wohlen, Switzerland) equipped with Variomag® Teleshake shakers (Sterico, Wangen, Switzerland) to maintain cell dispersion. The cell culture medium was William’s media supplemented with glutamine, antibiotics, insulin, dexamethasone, and 10% FCS. RG7774 (1 μM) were incubated in 96-well plates containing suspension cultures (1 × 10^6 hepatocytes/mL [~1 mg/mL protein concentration]), with each well containing a total volume of 100 μL. Plates were shaken at 900 rpm for up to 2 h in 5% CO2 at 37 °C. Reactions were quenched after 3, 6, 10, 20, 40, 60, and 120 min with 200 μL methanol containing an internal standard. Samples were cooled, centrifuged, and analyzed by LC-MS/MS. Log peak area ratios (test compound peak area/internal standard peak area) or concentrations were plotted against incubation time using a linear fit to the data with emphasis on the initial rate of compound disappearance.

T3 sequence (P33261 whole entry): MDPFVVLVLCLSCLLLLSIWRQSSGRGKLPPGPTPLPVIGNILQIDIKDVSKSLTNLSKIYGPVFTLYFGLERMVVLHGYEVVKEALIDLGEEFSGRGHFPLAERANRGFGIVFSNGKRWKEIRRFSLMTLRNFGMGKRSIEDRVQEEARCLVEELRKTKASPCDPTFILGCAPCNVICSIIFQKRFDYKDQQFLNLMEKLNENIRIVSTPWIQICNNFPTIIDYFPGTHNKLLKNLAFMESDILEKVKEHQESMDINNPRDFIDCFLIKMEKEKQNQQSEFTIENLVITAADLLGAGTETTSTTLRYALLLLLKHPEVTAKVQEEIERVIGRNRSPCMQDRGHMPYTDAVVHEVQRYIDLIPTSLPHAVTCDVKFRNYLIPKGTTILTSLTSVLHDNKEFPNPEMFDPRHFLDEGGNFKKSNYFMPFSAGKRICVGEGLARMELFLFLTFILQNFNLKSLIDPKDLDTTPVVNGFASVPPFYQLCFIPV
T4 sequence (P08684 whole entry): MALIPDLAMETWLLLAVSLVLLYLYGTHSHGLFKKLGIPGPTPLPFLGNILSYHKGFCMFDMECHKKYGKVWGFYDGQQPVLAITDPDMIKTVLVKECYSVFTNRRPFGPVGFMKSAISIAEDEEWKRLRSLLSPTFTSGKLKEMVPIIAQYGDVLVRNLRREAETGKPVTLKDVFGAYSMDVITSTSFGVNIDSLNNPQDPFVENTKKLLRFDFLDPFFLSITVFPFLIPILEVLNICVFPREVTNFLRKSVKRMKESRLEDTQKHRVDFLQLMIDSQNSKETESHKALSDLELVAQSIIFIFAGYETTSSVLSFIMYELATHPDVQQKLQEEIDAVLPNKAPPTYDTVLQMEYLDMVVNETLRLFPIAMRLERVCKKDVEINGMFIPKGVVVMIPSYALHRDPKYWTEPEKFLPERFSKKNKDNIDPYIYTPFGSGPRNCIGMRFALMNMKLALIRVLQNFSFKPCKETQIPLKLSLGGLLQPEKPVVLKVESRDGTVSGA
T1 sequence (P10635 whole entry): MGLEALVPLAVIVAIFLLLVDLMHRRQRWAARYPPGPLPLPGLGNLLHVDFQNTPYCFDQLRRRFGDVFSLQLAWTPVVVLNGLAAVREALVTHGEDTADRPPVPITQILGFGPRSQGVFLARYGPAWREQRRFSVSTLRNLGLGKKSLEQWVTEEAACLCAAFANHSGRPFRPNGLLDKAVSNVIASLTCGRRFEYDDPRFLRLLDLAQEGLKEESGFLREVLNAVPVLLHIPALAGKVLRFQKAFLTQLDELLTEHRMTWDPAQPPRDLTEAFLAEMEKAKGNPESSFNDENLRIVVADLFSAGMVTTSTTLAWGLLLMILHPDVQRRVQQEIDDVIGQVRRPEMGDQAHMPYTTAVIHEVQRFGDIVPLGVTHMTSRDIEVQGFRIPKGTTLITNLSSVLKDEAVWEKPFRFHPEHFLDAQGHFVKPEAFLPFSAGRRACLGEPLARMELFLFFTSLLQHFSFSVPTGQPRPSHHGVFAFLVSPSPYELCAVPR
T2 sequence (P10632 whole entry): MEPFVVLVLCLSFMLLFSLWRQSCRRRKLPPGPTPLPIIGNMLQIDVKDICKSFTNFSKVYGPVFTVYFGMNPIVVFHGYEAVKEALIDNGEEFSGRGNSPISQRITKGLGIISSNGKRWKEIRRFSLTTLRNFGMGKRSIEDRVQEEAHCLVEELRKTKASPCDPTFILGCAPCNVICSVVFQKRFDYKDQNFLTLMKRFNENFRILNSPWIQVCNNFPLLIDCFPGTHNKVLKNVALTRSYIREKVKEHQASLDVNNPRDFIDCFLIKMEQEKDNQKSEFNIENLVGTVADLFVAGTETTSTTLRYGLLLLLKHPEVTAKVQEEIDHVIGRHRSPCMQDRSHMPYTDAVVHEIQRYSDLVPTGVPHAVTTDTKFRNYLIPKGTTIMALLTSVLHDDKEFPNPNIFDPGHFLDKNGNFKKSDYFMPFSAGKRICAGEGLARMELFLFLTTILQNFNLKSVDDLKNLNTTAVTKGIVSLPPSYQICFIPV
T7 sequence (O35678 whole entry): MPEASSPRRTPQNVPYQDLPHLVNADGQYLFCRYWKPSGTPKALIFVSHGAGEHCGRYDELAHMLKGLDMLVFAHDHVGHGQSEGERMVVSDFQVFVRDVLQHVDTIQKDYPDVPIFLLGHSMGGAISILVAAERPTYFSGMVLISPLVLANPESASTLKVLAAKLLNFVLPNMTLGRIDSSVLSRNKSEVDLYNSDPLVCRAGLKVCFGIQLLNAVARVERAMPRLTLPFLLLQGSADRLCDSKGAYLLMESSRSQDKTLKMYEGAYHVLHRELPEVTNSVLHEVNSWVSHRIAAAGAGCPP
T6 sequence (P11712 whole entry): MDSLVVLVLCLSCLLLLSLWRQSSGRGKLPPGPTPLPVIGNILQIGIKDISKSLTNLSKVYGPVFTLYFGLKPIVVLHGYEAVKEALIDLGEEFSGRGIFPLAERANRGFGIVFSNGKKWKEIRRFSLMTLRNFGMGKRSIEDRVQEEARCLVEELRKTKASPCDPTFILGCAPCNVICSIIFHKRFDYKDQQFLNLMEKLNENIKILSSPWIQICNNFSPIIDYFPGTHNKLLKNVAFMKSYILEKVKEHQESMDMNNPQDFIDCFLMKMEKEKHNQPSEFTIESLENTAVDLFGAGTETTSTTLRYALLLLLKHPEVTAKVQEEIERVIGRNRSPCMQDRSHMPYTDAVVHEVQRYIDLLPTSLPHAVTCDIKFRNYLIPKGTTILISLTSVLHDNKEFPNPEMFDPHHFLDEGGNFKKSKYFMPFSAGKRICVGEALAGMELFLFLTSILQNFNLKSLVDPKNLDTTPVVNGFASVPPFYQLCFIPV
T5 sequence (P05177 whole entry): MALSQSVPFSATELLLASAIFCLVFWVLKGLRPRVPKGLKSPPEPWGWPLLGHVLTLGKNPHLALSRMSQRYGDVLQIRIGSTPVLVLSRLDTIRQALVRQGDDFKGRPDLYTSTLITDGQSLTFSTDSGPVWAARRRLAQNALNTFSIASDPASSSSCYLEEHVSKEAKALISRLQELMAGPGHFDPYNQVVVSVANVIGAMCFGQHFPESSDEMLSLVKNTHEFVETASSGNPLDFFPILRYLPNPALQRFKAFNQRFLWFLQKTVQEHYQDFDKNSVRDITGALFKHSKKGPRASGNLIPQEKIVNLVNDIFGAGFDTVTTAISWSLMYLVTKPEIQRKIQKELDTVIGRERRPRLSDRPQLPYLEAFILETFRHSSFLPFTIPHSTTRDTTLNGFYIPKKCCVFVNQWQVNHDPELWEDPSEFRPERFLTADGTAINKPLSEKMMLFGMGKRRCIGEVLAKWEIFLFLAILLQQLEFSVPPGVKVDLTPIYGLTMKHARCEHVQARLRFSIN
Sequence of Mouse CB1R (P47746 whole entry): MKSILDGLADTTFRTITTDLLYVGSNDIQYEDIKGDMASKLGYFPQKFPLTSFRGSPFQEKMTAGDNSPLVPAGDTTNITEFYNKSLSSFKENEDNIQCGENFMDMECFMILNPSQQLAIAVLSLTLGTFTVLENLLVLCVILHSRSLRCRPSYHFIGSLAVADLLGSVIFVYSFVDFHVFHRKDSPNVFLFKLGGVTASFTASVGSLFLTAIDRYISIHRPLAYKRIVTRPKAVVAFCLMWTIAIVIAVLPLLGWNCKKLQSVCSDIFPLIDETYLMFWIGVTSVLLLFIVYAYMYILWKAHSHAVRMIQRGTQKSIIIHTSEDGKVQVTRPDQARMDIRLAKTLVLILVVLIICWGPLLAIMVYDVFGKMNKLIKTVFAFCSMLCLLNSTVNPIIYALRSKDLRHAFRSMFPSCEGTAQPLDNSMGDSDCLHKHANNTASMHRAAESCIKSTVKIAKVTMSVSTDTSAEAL

Which results are given for Cn1nnnc1Cn1nnc2c(N3CC[C@H](O)C3)nc(C(C)(C)C)nc21 [RG7774, (S)-1-(5-tert-butyl-3-[(1-methyl-1H-tetrazol-5-yl)methyl]-3H-[1,2,3]triazolo[4,5-d]pyrimidin-7-yl)pyrrolidin-3-ol]?
IC50 (CYP2D6): > 50 µM; IC50 (CYP2C8): > 50 µM; IC50 (CYP2C19): > 50 µM; IC50 (CYP3A4): > 50 µM; IC50 (CYP1A2): > 50 µM; IC50 (CYP2C9): 29 µM; inhibition at 10 µM (Mouse CB1R): 3.8%; inhibition at 10 µM (Mouse MAGL): 2.7 ± 11.7%; concentrations lower in cerebrospinal fluid than in plasma [1]: approximately 10 fold; hepatocyte CLint at 1 µM (Hepatocyte clearance; human, pooled cryopreserved human hepatocytes in suspension): 1.7 µL/min/1e6 cells; hepatocyte CLint at 1 µM (Hepatocyte clearance; mouse): 49.3 µL/min/1e6 cells; hepatocyte CLint at 1 µM (Hepatocyte clearance; rat): 37.9 µL/min/1e6 cells
